Values joined by “and” are separate entries in the source; they are usually repeats but may differ in a detail not shown here. Equal values may be shown once. Where a name gives a salt, the structure may show the parent alone. Read-outs that look alike come from different tables or passages of the source.
Tests used:
[1] = target: T1, wild type human RORγt ligand binding domain (RORyt LBD) (Homo sapiens, UniProt P51449); test: RORγt ThermoFluor assay (thermal shift, binding affinity KD)
T1 construct: His-tag (N); TurboTEV protease cleavage site (ENLYFQG) (N); made in house; host or cells: E. coli (pHIS1, modified pET vector)
T1 sequence (P51449 258-518): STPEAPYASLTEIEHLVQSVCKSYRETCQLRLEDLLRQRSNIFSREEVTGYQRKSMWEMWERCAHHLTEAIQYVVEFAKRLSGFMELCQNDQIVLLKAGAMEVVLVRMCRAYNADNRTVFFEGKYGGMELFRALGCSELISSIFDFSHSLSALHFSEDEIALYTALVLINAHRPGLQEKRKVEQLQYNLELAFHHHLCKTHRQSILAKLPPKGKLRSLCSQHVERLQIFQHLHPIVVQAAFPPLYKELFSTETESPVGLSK

[2] = target: T2, wild type human RORγt LBD (Homo sapiens, UniProt P51449); test: RORγt (LBD) Reporter Assay (GAL4-luciferase, HEK293T cells); type: cell-based; settings: for RORγt (LBD) Reporter Assay, % inhibition @ 6 µM: 6 µM compound concentration; for inhibition at 6 µM: HEK-293T, read-out: RORγt (LBD) Reporter Assay, % inhibition @ 6 µM, 6 µM compound concentration
T2 construct: expressed in transfected cells; host or cells: HEK293T
T2 sequence (P51449 258-518): T1 sequence (P51449 258-518)

[3] = HEK293T cells, value after the comma with ∼, > or < could not be included in the average

SMILES	Kd [1] [nM]	RORγt (LBD) Reporter Assay, % inhibition @ 6 µM ([2]; HEK293T cells, 6 µM) [%]	IC50 ([2]; HEK293T cells) [nM]	RORγt (LBD) Reporter Assay, % inhibition @ 6 µM ([2]; 6 µM) [%]	IC50 [2, 3]	inhibition at 6 µM [2] [%]	inhibition at 6 µM ([2]; HEK293T cells) [%]	RORγt (LBD) Reporter Assay, % inhibition @ 6 µM [2] [%]
COc1nc2ccc(C(O)(c3ncccn3)c3cncn3C)cc2c(Cl)c1Cc1ccc(-n2cccn2)cc1 (single isomer, unassigned) [Example 131b, {4-Chloro-2-methoxy-3-[4-(1H-pyrazol-1-yl)benzyl]quinolin-6-yl}(1-methyl-1H-imidazol-5-yl)pyrimidin-2-ylmethanol]	9000	59	~6000	–	–	–	–	–
COc1nc2ccc(C(O)(c3ccc(C)nc3C)c3cnnn3C)cc2c(Cl)c1Cc1ccc(-n2cccn2)cc1 (stereo not drawn) [Example 17a, (3-(4-(1H-Pyrazol-1-yl)benzyl)4-chloro-2-methoxyquinolin-6-yl)(2,6-dimethylpyridin-3-yl)(1-methyl-1H-1,2,3-triazol-5-yl)methanol]	0.91	–	–	–	10 nM	99	–	–
COc1nc2ccc(C(O)(c3ccc(F)cc3)c3cccnc3)cc2c(Cl)c1Cc1ccc(-n2cccn2)cc1 (single isomer, unassigned) [Example 158c, (3-(4-(1H-Pyrazol-1-yl)benzyl)-4-chloro-2-methoxyquinolin-6-yl)(4-fluorophenyl)(pyridin-3-yl)methanol]	7.7	100	130	–	–	–	–	–
COc1nc2ccc(C(O)(c3ccccc3)C3CCN(C(C)=O)CC3)cc2c(Cl)c1Cc1ccc(-n2ccnc2)cc1 (stereo not drawn) [Example 16a, 1-(4-((3-(4-(1H-Imidazol-1-yl)benzyl)4-chloro-2-metboxyquinolin-6-yl)(hydroxy)(phenyl)methyl)piperidin-1-yl)ethanone]	8.4	–	–	–	9.8 nM	101	–	–
COc1nc2ccc(C(O)(c3ccc(C)nc3C)C3CN(C(C)=O)C3)cc2c(Cl)c1Cc1ccc(C(F)(F)F)cc1 (racemic) [Example 87a, 1-(3-((4-Chloro-2-methoxy-3-(4-(trifluoromethyl)benzyl)quinolin-6-yl)(2,6-dimethylpyridin-3-yl)(hydroxy)methyl)azetidin-1-yl)ethanone]	1.8	–	–	–	6.8 nM	100	–	–
COc1nc2ccc(C(O)(c3ccc(C)nc3C)c3cnnn3C)cc2c(Cl)c1Cc1ccc(-n2cccn2)cc1 (single isomer, unassigned) [Example 17b, (3-(4-(1H-Pyrazol-1-yl)benzyl)-4-chloro-2-methoxyquinolin-6-yl)(2,6-dimethylpyridin-3-yl)(1-methyl-1H-1,2,3-triazol-5-yl)methanol]	200	–	–	–	660 nM	97	–	–
CCc1nc2ccc(C(O)(c3ccc(C)nc3C)c3cnnn3C)cc2c(Cl)c1Cc1ccc(C(F)(F)F)cc1 (single isomer, unassigned) [Example 23b, (4-Chloro-2-ethyl-3-(4-(trifluoromethyl)benzyl)quinolin-6-yl)(2,6-dimethylpyridin-3-yl)(1-methyl-1H-1,2,3-triazol-5-yl)methanol]	82	–	–	–	200 nM	94	–	–
COc1nc2ccc(C(O)(c3ccccc3)C3CCN(C(C)=O)CC3)cc2c(Cl)c1Cc1ccc(-n2ccnc2)cc1 (stereo not drawn) [Example 16c]	4.6	–	–	100	20 nM	–	–	–
CC(=O)N1CCC(C(O)(c2ccccc2)c2ccc3nc(Cl)c(Cc4cncnc4)c(OC(F)F)c3c2)CC1 (single isomer, unassigned) [Example 73c, 1-(4-((2-Chloro-4-(difluoromethoxy)-3-(pyrimidin-5-ylmethyl)quinolin-6-yl)(hydroxy)(phenyl)methyl)piperidin-1-yl)ethanone]	480	–	–	21	> 6000 nM	–	–	–
COc1nc2ccc(C(O)(c3ccccc3)C3CCN(C(C)=O)CC3)cc2c(Cl)c1Cc1ccc(-n2ccnc2)cc1 (stereo not drawn) [Example 16b]	33	–	–	96	91 nM	–	–	–
COc1nc2ccc(C(O)(c3ccc(F)cc3)C3CCN(C(C)=O)CC3)cc2c(Cl)c1Cc1ccc(-n2cccn2)cc1 (single isomer, unassigned) [Example 157b, 1-(4-((3-(4-(1H-Pyrazol-1-yl)benzyl)4-chloro-2-methoxyquinolin-6-yl)(4-fluorophenyl)(hydroxy)methyl)piperidin-1-yl)ethanone]	1.7	–	34	–	–	–	102	–
Cn1cncc1C(O)(c1ccc(C(F)(F)F)nc1)c1ccc2nc(N3CC(F)(F)C3)c(Cc3ccc(-n4cccn4)cc3)c(Cl)c2c1 (single isomer, unassigned) [Example 135b, {4-Chloro-2-(3,3-difluoroazetidin-1-yl)-3-[4-(1H-pyrazol-1-yl)benzyl]quinolin-6-yl}(1-methyl-1H-imidazol-5-yl)[6-(trifluoromethyl)pyridin-3-yl]methanol]	160	–	260	–	–	–	99	–
COc1nc2ccc(C(N)(c3ccc(C(F)(F)F)nc3)c3cncn3C)cc2c(Cl)c1Cc1cc2ccccc2s1 (single isomer, unassigned) [Example 71c, (3-(Benzo[b]thiophen-2-ylmethyl)-4-chloro-2-methoxyquinolin-6-yl)(1-methyl-1H-imidazol-5-yl)(6-(trifluoromethyl)pyridin-3-yl)methanamine]	270	–	–	94	830 nM	–	–	–
Cn1cncc1C(O)(c1ccc(C(F)(F)F)nc1)c1ccc2nc(N3CC(F)(F)C3)c(Cc3ccc(-n4cccn4)cc3)c(Cl)c2c1 (stereo not drawn) [Example 135a, {4-Chloro-2-(3,3-difluoroazetidin-1-yl)-3-[4-(1H-pyrazol-1-yl)benzyl]quinolin-6-yl}(1-methyl-1H-imidazol-5-yl)[6-(trifluoromethyl)pyridin-3-yl] methanol.TFA]	36	–	270	–	–	–	97	–

The remaining lines, values ahead:

Kd [1] [nM]	RORγt (LBD) Reporter Assay, % inhibition @ 6 µM ([2]; HEK293T cells, 6 µM) [%]	IC50 ([2]; HEK293T cells) [nM]	RORγt (LBD) Reporter Assay, % inhibition @ 6 µM ([2]; 6 µM) [%]	IC50 [2, 3]	inhibition at 6 µM [2] [%]	inhibition at 6 µM ([2]; HEK293T cells) [%]	RORγt (LBD) Reporter Assay, % inhibition @ 6 µM [2] [%]	SMILES
6.4	–	–	99	5.9 nM	–	–	–	COc1nc2ccc(C(O)(c3ccc(C)nc3C)c3cnnn3C)cc2c(C#N)c1Cc1ccc(C(F)(F)F)nc1 (single isomer, unassigned) [Example 41c, 6-((2,6-Dimethylpyridin-3-yl)(hydroxy)(1-methyl-1H-1,2,3-triazol-5-yl)methyl)-2-methoxy-3-((6-(trifluoromethyl)pyridin-3-yl)methyl)quinoline-4-carbonitrile]
0.31	–	–	–	6 nM	101	–	–	COc1nc2ccc(C(O)(c3sc(C)nc3C)c3cnnn3C)cc2c(Cl)c1Cc1ccc(-n2cccn2)cc1 (stereo not drawn) [Example 21a, (3-(4-(1H-Pyrazol-1-yl)benzyl)4-chloro-2-methoxyquinolin-6-yl)(2,4-dimethylthiazol-5-yl)(1-methyl-1H-1,2,3-triazol-5-yl)methanol]
18	–	–	65	~5000 nM	–	–	–	COc1c(Cc2ccccc2)c(C(F)(F)F)nc2ccc(C(O)(c3ccc(C(F)(F)F)nc3)c3cncn3C)cc12 (single isomer, unassigned) [Example 106c, (3-Benzyl-4-methoxy-2-(trifluoromethyl)quinolin-6-yl)(1-methyl-1H-imidazol-5-yl)(6-(trifluoromethyl)pyridin-3-yl)methanol]
19	97	140	–	–	–	–	–	Cc1cc(C(O)(c2ccc(Cl)cc2)c2cncn2C)cc2c(Cl)c(Cc3ccc(-n4cccn4)cc3)c(N3CCC3)nc12 (single isomer, unassigned) [Example 136c, {2-Azetidin-1-yl-4-chloro-8-methyl-3-[4-(1H-pyrazol-1-yl)benzyl]quinolin-6-yl}(4-chlorophenyl)(1-methyl-1H-imidazol-5-yl)methanol]
1.5	–	–	98	22 nM	–	–	–	COc1nc2ccc(C(O)(c3cncn3C)C3CCOCC3)cc2c(Cl)c1Cc1ccc(-n2cccn2)cc1 (single isomer, unassigned) [Example 1c, (3-(4-(1H-Pyrazol-1-yl)benzyl)-4-chloro-2-methoxyquinolin-6-yl)(1-methyl-1H-imidazol-5-yl)(tetrahydro-2H-pyran-4-yl)methanol]
0.62	–	–	93	57 nM and ~30 nM	–	–	–	COc1nc2ccc(C(O)(c3ccc(C)nc3C)c3cnnn3C)cc2c(Cl)c1Cc1ccc(C)cc1 (single isomer, unassigned) [Example 20c, (4-Chloro-2-methoxy-3-(4-methylbenzyl)quinolin-6-yl)(2,6-dimethylpyridin-3-yl)(1-methyl-1H-1,2,3-triazol-5-yl)methanol]
0.26	–	–	–	< 2 nM	–	–	97	COc1nc2ccc(C(O)(c3cncn3C)c3cnnn3C)cc2c(Cl)c1Cc1ccc(C(F)(F)F)cc1 (single isomer, unassigned) [Example 89c, (4-Chloro-2-methoxy-3-(4-(trifluoromethyl)benzyl)quinolin-6-yl)(1-methyl-1H-1,2,3-triazol-5-yl)(1-methyl-1H-imidazol-5-yl)methanol]
0.08	–	–	98	8.7 nM	–	–	–	COc1nc2ccc(C(O)(c3sc(C)nc3C)c3cnnn3C)cc2c(Cl)c1Cc1ccc(-n2cccn2)cc1 (single isomer, unassigned) [Example 21c, (3-(4-(1H-Pyrazol-1-yl)benzyl)-4-chloro-2-methoxyquinolin-6-yl)(2,4-dimethylthiazol-5-yl)(1-methyl-1H-1,2,3-triazol-5-yl)methanol]

From EP3057951B1, “METHYLENE LINKED QUINOLINYL MODULATORS OF ROR-GAMMA-T” (Janssen Pharmaceutica NV, priority 2013, dated 2015)
